According to patent publication US20260125379A1, “PRODRUG OF JAK KINASE INHIBITOR” (E-nitiate Biopharmaceuticals (Hangzhou) Co., Ltd, priority 2022, published 2026):
Like-named read-outs stand apart in the source and are kept apart here.

What was measured:
JAK1 = JAK1 (Homo sapiens, UniProt P23458); experiment: JAK1 kinase inhibition assay (ULight-JAK-1 substrate, Eu-labeled anti-phosphotyrosine antibody); type: biochemical; conditions: JAK1 10 nM, substrate 50 nM, ATP 40 μM, 2 hours at room temperature
Chain of JAK1 (P23458 whole entry, species assumed): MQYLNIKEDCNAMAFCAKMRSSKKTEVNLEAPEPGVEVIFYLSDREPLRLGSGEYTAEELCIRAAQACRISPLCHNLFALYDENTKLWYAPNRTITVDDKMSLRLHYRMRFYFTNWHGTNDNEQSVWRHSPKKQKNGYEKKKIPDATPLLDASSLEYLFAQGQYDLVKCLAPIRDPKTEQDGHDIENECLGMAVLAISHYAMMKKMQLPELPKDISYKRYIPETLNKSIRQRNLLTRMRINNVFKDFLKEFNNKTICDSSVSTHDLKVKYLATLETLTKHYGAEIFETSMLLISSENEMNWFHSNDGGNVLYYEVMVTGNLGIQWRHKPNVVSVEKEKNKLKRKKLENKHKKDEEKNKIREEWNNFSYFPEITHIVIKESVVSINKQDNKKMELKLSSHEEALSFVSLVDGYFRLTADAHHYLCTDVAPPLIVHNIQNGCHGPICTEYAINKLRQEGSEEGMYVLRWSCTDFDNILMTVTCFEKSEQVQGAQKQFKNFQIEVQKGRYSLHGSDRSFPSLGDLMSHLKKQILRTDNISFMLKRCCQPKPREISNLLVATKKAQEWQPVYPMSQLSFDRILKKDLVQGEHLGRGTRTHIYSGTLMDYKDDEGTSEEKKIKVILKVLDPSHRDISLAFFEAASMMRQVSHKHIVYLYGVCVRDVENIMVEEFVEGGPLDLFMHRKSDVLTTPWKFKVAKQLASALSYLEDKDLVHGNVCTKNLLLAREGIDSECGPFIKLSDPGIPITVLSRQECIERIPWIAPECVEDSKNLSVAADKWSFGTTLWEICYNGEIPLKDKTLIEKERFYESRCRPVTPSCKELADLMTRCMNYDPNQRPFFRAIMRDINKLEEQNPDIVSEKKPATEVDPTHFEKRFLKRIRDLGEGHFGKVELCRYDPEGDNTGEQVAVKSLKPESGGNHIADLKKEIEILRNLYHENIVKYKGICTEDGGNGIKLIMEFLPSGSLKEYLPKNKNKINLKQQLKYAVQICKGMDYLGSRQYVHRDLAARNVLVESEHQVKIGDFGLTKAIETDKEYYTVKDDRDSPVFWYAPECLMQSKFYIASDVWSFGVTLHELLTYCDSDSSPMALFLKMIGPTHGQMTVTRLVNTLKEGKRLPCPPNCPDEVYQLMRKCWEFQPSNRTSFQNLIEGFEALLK
Procedure: (§1) Example A: Activity Detection of JAK Kinase Small Molecule Inhibitors
(§2) Kinase reaction buffer was prepared with the following components: 50 mM HEPES, pH 7.5, 1 mM EGTA, 10 mM MgCl2, 2 mM DTT, 0.01% Tween20.
(§3) Detection buffer was prepared by diluting 10× detection buffer to IX with deionized water in a ratio of 9:1.
(§4) JAK kinase was diluted with kinase reaction buffer to 4× final concentration (JAK1: 40 nM, JAK2: 0.5 nM).
(§5) ULight™-JAK-1 (Tyr1023) substrate was diluted with kinase reaction buffer to 200 nM (final concentration: 50 nM).
(§6) ATP was diluted with kinase reaction buffer to 4× final concentration (JAK1: 160 μM, JAK2: 40 μM).
(§7) Compound to be tested was dissolved with DMSO to obtain a 10 mM storage solution, which was diluted to desired concentrations by a 3-fold gradient; for each compound 10 concentration points were set, and the final concentration of the compound to be tested ranges from 10 μM to 0.5 nM.
(§8) EDTA was dissolved with 1× detection buffer to 40 mM (EDTA final concentration: 10 mM).
(§9) Eu-labeled detection antibody (anti-phosphotyrosine (PT66)) was diluted with 1× detection buffer to 8 nM (final antibody concentration: 2 nM).
(§10) (1) To a 384-well plate, 2.5 μL 4× kinase solution and 2.5 μL 4× test compound solution with different concentrations that have been diluted were added successively, each concentration was set in duplicate, and an enzyme solution blank control and a negative control (DMSO group) were also set.
(§11) (2) The 384-well plate was shaken to mix enzyme and compound well, and then centrifuged at 1000 rpm for 1 minute, and incubated at room temperature for 60 minutes.
(§12) (3) 2.5 μL 4× substrate solution was added to the 384-well plate and centrifuged at 1000 rpm for 1 minute.
(§13) (4) 2.5 μL 4× ATP solution was added to the 384-well plate and centrifuged at 1000 rpm for 1 minute, and then enzyme reaction was initiated.
(§14) (5) For JAK1 the reaction was carried out at room temperature for 2 hours, and for JAK2 the reaction was carried out at room temperature for 1 hour.
(6) For the JAK1 reaction, the final concentrations of components are as follows: JAK1: 10 nM, substrate: 50 nM, ATP: 40 μM; and the final concentration of the tested compounds ranges from 10μ M to 0.5 nM.
(§15) (7) After the enzyme reaction was completed, 5 μL 4× enzyme reaction termination solution was added to each well of the 384-well plate, and then centrifuged at 1000 rpm for 1 minute and incubated at room temperature for 5 minutes.
(§16) (8) 5 μL 4× detection antibody solution (the final concentration of detection antibody is 2 nM) was added to each well of the 384-well plate, and then centrifuged at 1000 rpm for 1 minute and incubated at room temperature for 1 hour.
(§17) (9) At the antibody incubation was completed, signal value of each well was measured on a Envision plate reader.
(§18) (1) The percentage inhibition rate corresponding to each concentration of the tested compound was calculated on the basis that the blank control of enzyme solution corresponds to 100% and the negative control (DMSO group) corresponds to 0%.
(§19) (2) A nonlinear regression analysis of the logarithm of the concentration of the detected compound and the corresponding percentage inhibition rate was performed in GraphPad Prism software to obtain the half-inhibiting concentration (IC50) of the tested compound.

JAK2 = JAK2 (Homo sapiens, UniProt O60674); experiment: JAK2 kinase inhibition assay (ULight-JAK-1 substrate, Eu-labeled anti-phosphotyrosine antibody); type: biochemical; conditions: JAK2 0.125 nM, substrate 50 nM, ATP 10 μM, 1 hour at room temperature
Chain of JAK2 (O60674 whole entry, species assumed): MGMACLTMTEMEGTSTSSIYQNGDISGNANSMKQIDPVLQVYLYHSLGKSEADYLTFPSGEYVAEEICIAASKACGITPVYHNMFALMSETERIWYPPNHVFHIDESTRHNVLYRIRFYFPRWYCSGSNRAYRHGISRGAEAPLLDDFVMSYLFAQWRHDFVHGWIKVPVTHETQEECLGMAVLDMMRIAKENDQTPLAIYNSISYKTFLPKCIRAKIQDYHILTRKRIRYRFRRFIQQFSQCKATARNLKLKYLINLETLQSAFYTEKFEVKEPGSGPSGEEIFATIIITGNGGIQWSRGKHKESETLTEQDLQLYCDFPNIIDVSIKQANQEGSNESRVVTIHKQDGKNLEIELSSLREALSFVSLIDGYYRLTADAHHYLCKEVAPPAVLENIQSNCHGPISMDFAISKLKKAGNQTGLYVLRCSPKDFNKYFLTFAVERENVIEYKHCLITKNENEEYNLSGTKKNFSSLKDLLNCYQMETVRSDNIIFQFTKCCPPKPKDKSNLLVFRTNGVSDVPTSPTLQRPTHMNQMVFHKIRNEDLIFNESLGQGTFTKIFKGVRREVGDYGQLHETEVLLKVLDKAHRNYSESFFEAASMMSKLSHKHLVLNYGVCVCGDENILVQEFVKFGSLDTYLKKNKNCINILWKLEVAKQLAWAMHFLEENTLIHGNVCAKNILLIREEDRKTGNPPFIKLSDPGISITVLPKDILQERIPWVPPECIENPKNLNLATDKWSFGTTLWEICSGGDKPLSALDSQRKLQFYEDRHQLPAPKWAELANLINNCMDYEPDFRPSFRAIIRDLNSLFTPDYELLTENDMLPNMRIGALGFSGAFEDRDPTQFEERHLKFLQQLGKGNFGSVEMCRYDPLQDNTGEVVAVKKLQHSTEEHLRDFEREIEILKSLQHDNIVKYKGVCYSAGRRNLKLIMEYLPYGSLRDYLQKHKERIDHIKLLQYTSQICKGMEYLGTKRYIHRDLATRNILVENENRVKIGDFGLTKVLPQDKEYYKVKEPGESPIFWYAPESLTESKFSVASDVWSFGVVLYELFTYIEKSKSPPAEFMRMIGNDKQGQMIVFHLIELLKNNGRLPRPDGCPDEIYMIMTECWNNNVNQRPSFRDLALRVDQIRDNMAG
Procedure: as §1, §2, §3, §4, §5, §6, §7, §8, §9, §10, §11, §12, §13, §14
For the JAK2 reaction, the final concentrations of component are as follows: JAK2: 0.125 nM, substrate: 50 nM, ATP: 10 μM; and the final concentration of the tested compound ranges from 10 μM to 0.5 nM.
as §15, §16, §17, §18, §19

[1] = Fecal excretion (cumulative recovery) in rats after single gavage; type: in vivo; conditions: feces, SD rats
Procedure: (§20) Compounds A1, A2, A3, B3, B6 and B3 were administered once to SD rats by gavage. The concentrations of medicaments and metabolites thereof in plasma were collected and measured at different time points, and the pharmacokinetic parameters of each compound were calculated to study the pharmacokinetic characteristics of the compounds in plasma of SD rats. Fecal samples at 8 and 24 hours were collected simultaneously, and the concentrations of prodrugs and degraded products were detected to investigate the excretion recovery rate.
(§21) Rats were grouped in groups of 3, and all SD rats were fasted overnight (12 hours or more) the day before the experiment. On the day of the experiment, after weighing the body weight, the rats were administrated once with compound A1, A2, A3, B3, B6, and B3 by gavage respectively. SD rats were able to resume eating 4 hours after administration and were able to drink freely during the experiment. 0.20 mL of blood was collected from the jugular vein before administration and at 0.5, 1, 2, 4, 8, 12, and 24 hours after administration, respectively, and was placed in EDTA-K2 anticoagulation tube. All whole blood samples were centrifuged at 1500 g to 1600 g for 10 minutes within half an hour after collection to separate plasma, which was stored in a refrigerator at a temperature of between −90° C. and −60° C. for sample analysis. All the feces from the metabolic cage chassis were collected at 24 h after administration and weighed accurately. The required volume of homogenate liquid (aqueous solution containing 20% methanol) was added at a weight/volume ratio of 1:10, and the resultant was homogenized and analyzed.

[2] = Plasma pharmacokinetics in rats after single gavage; type: in vivo; conditions: SD rats; for presence of the prodrug in plasma (in words): after gavage of the prodrug itself; for Cmax (ng · mL^−1) / AUC0-t / Cmax / Tmax: plasma
Procedure: as §20, §21

[3] = Pharmacokinetics in rats in vivo: A13 in plasma and colon tissue after equimolar A3 or A13; conditions: SD rats, A3 30 mg/kg vs A13 15 mg/kg (equal molar) by gavage, FIG. 1
Procedure: Compounds A3 and A13 were administered once to SD rats by gavage in an equal molar amount relative to the body weight of rats. The concentration of the medicaments and metabolites thereof in plasma and colon tissues were collected and measured at different time points, and the pharmacokinetic parameters of the compounds were calculated to compare the pharmacokinetic characteristics of the prodrug and the active metabolite in SD rats in vivo.
Rats were grouped in groups of 27, and all SD rats were fasted overnight (12 hours or more) the day before the experiment. On the day of the experiment, after weighing the body weight, the compounds A3 (30 mg/kg) and A13 (15 mg/kg) were administered once by gavage respectively. SD rats were able to resume eating after 4 hours of administration and were able to drink freely during the experiment. Plasma and colonic tissue were collected at 0.5, 1, 2, 4, 6, 8, 12, 24 and 48 hours after the administration to detect the concentration of A13 in the plasma and colon tissue homogenate liquid.

[4] = administration group Compound A1 50 mg/kg by gavage
[5] = administration group Compound A2 50 mg/kg by gavage
[6] = administration group Compound A3 40 mg/kg by gavage
[7] = administration group Compound B3 33 mg/kg (equimolar with B6) by gavage
[8] = administration group Compound B6 50 mg/kg by gavage
[9] = rat, po, administration group Compound B6 50 mg/kg by gavage, read-out: Cmax
[10] = rat, po, administration group Compound B6 50 mg/kg by gavage, read-out: Tmax

IC50 (JAK1) | IC50 (JAK2) | Cumulative recovery rate at 24 h (%) [1, 4] | presence of the prodrug in plasma (in words) [2] | Cumulative recovery rate at 24 h (%) [1, 5] | Cumulative recovery rate at 24 h (%) [1, 6] | AUC0-t [2, 6] | Cumulative recovery rate at 24 h (%) [1, 8] | Cmax [2, 9] | Tmax [2, 10] | SMILES | also measured
133 nM | 536 nM | 83% | absent or rarely present in plasma | – | – | – | – | – | – | C[C@@H](OC(=O)CCc1ccccc1/N=N/c1ccc(O)c(C(=O)O)c1)c1nc2cnc3[nH]ccc3c2n1N1CCC(CC#N)CC1 [Compound A1, (R,E)-5-((2-(3-(1-(1-(4-(cyanomethyl)piperidin-1-yl)-1,6-dihydroimidazo[4,5-d]pyrrolo[2,3-b]pyridin-2-yl)ethoxy)-3-oxopropyl)phenyl)diazenyl)-2-hydroxybenzoic acid] | Cmax (ng · mL^−1) [2, 4]: BLOQ
5.94 nM | 27 nM | – | absent or rarely present in plasma | 7.2% | – | – | – | – | – | C[C@@H](OC(=O)OCc1ccc(/N=N/c2ccc(O)c(C(=O)O)c2)cc1)c1nc2cnc3[nH]ccc3c2n1N1CCC(CC#N)CC1 [Compound A2, (R,E)-5-((4-((((1-(1-(4-cyanomethylpiperidin-1-yl)-1,6-dihydroimidazo[4,5-d]pyrrolo[2,3-b]pyridin-2-yl)ethoxy)carbonyl)oxy)methyl)phenyl)diazenyl)-2-hydroxybenzoic acid] | Cmax (ng · mL^−1) [2, 5]: BLOQ
7.04 nM | 102 nM | – | absent or rarely present in plasma | – | 0.78% | 8.92 ng·h/g | – | – | – | C[C@@H](OC(=O)C(C)(C)Oc1ccccc1/N=N/c1ccc(O)c(C(=O)O)c1)c1nc2cnc3[nH]ccc3c2n1N1CCC(CC#N)CC1 [Compound A3, (R,E)-5-((2-((1-(1-(1-(4-cyanomethylpiperidin-1-yl)-1,6-dihydroimidazo[4,5-d]pyrrolo[2,3-b]pyridin-2-yl)ethoxy)-2-methyl-1-oxopropan-2-yl)oxy)phenyl)diazenyl)-2-hydroxybenzoic acid] | Cmax ([2]; rat, po, administration group Compound A3 40 mg/kg by gavage, read-out: Cmax): 2.08 ng/mL; Tmax ([2]; rat, po, administration group Compound A3 40 mg/kg by gavage, read-out: Tmax): 4 h; amount (AUC) of active metabolite A13 in the colonic tissue after prodrug A3 compared with compound A13 ([3]; colon tissue 0.5-48 hours): more in the colonic tissue; amount (AUC) of active metabolite A13 in the blood after prodrug A3 compared with compound A13 ([3]; plasma 0.5-48 hours): less in the blood
– | – | 11.6% | – | 24.8% | 34.3% | 836 ng·h/g | – | – | – | C[C@@H](O)c1nc2cnc3[nH]ccc3c2n1N1CCC(CC#N)CC1 [Compound A13, (R)-2-(1-(2-(1-(hydroxyethyl))imidazo[4,5-d]pyrrolo[2,3-b]pyridin-1(6H)-yl)piperidin-4-yl)acetonitrile] | Cmax [2, 4]: 9.1 ng/mL; Tmax [2, 4]: 12 h; AUC0-t [2, 5]: 972 ng·h/g; Cmax [2, 5]: 80.6 ng/mL; Tmax [2, 5]: 4 h; Cmax [2, 6]: 69.9 ng/mL; Tmax [2, 6]: 12 h
0.04 nM | 0.37 nM | – | – | – | – | – | 82.1% | 4.8 ng/mL | 12 h | N#CC[C@H]1CC[C@H](n2c(N)nc3cnc4[nH]ccc4c32)CC1 [Compound B3, 2-((1R,4R)-4-(2-aminoimidazo[4,5-d]pyrrolo[2,3-b]pyridin-1(6H)-ethyl)cyclohexyl)acetonitrile] | Cumulative recovery rate at 24 h (%) [1, 7]: 71.2%; AUC0-t [2, 7]: 324 ng·h/g; AUC0-t [2, 8]: 69.1 ng·h/g; Cmax ([2]; rat, po, administration group Compound B3 33 mg/kg (equimolar with B6) by gavage, read-out: Cmax): 126 ng/mL; Tmax ([2]; rat, po, administration group Compound B3 33 mg/kg (equimolar with B6) by gavage, read-out: Tmax): 1.2 h
0.45 nM | 0.81 nM | – | absent or rarely present in plasma | – | – | – | 5.1% | 0.7 ng/mL | 4 h | N#CC[C@H]1CC[C@H](n2c(/N=N/c3ccc(O)c(C(=O)O)c3)nc3cnc4[nH]ccc4c32)CC1 [Compound B6, 5-((E)-(1-((1R,4R)-4-(cyanomethyl)cyclohexyl)-1,6-dihydroimidazo[4,5-d]pyrrolo[2,3-b]pyridin-2-yl)diazenyl)-2-hydroxybenzoic acid] | blood system absorption (AUC0-t) of the active metabolite B3 after prodrug B6 compared with direct oral equimolar B3 ([2]; B6 50 mg/kg vs B3 33 mg/kg by gavage): significant reduction
